Where “and” joins values, the source holds several entries; their conditions need not be identical. Equal values may be shown once.
Legend:
[1] = test system: newly diagnosed AML with mutations in TP53 and/or complex karyotype; assay: Overall survival and duration of response (Kaplan–Meier); format: in vivo, human; settings: for Response duration: No. of events / Response duration: median (95% CI): patients who achieved CR/CRh/CRi
Method: Demographics were summarized by descriptive statistics. Duration of response was calculated from the date when composite CR was achieved to […], censoring patients who remained alive and relapse-free at the time of the last follow-up. OS was calculated from treatment start to all-cause death, censoring patients who were alive at the time of the last follow-up. Kaplan–Meier methodology was used to assess OS and duration of response.

TP53 = TP53 variant allele frequency by serial targeted next-generation sequencing; format: in vivo, human
Method: Mutations in germline and serial bone marrow or blood samples were determined by targeted next-generation sequencing (NGS). NGS aligned read files are available in the NCBI’s Sequence Read Archive under accession PRJNA1236309. See Supplementary Methods for details.
Genomic DNA was isolated from cryopreserved cells with QIAmp DNA Mini Kit (Qiagen) and fragmented using ME220 Focused-ultrasonicator (Covaris; SCR_019818). Libraries were generated using xGen™ DNA Lib Prep MC UNI kit and target capture was done using xGen AML Cancer Hybridization Panel in conjunction with a 3 gene spike-in pool for ZRSR2, AXL, and ASXL2 (Integrated DNA Technologies). DNA library preparations were performed according to the manufacturer’s instructions and sequenced on an Illumina Novaseq (OSUCCC Genomics Shared Resource) (SCR_016387). Sequenced reads were aligned to the GRCh38 genome build using the Burrows-Wheeler Aligner (BWA) (SCR_010910). Picard Tools was used to perform UMI-consensus calling on the aligned reads. The Genome Analysis Toolkit (GATK) (SCR_001876) was used to realign insertions and deletions in the aligned reads and to perform base quality score recalibration for those realigned regions. GATK’s MuTect2 (SCR_026692) was used to perform variant calling. After variant calling, variants were annotated using SnpEff (SCR_005191) and vcfanno (SCR_024372) along with the dbsnp (SCR_002338), COSMIC (SCR_002260), and gnomad variant databases (SCR_014964). The Mucor3 algorithm was used as the baseline for integrative mutation assessment. Visual inspection of all variants was carried out using Integrative Genomics Viewer v.2.8 (Broad Institute).

[2] = TP53-mutated patients, TP-0903 + decitabine, n = 20
[3] = TP53-mutated patients, TP-0903 + decitabine
[4] = group 1, TP-0903 37 mg/day + decitabine, n = 15
[5] = group 1, TP-0903 37 mg/day + decitabine
[6] = group 2, TP-0903 25 mg/day + decitabine, n = 12
[7] = group 2, TP-0903 25 mg/day + decitabine
[8] = overall, TP-0903 + decitabine, n = 27

## CN1CCN(Cc2ccc(Nc3ncc(Cl)c(Nc4ccccc4S(=O)(=O)N(C)C)n3)cc2)CC1.O=C(O)C(O)C(O)C(=O)O.O=C(O)C(O)C(O)C(=O)O [TP-0903, 2-(5-chloro-2-(4-((4-methylpiperazin-1-yl)methyl)phenylamino)pyrimidin-4-yl)amino-N,N-dimethylbenzene-1-sulfonamide di-tartrate salt]
[1]; [2]
  OS: No. of events (deaths): 13
  OS: median (95% CI): 10.0 (2.0–20.6) months
[1]; [3]
  Response duration: No. of events: 6
  Response duration: median (95% CI): 10.6 (3.3–NE) months
[1]; [4]
  OS: No. of events (deaths): 10
  OS: median (95% CI): 7.6 (2.0–20.6) months
[1]; [5]
  Response duration: No. of events: 3
  Response duration: median (95% CI): 13.8 months and 13.8 (7.3–NE) months
[1]; [6]
  OS: No. of events (deaths): 7
  OS: median (95% CI): 7.5 months and 7.5 (1.1 – NE) months
[1]; [7]
  Response duration: No. of events: 5
  Response duration: median (95% CI): 4.6 months and 4.6 (1.8–NE) months
[1]; [8]
  OS: No. of events (deaths): 17
  OS: median (95% CI): 7.6 (3.3–13.4) months
[1]; overall, TP-0903 + decitabine
  Response duration: No. of events: 8
  Response duration: median (95% CI): 7.3 (3.3–13.8) months
TP53; patients who achieved CR, n = 5, P < 0.01
  Change in TP53 VAF: significantly decreased
TP53; patients who achieved CRh/CRi/MLFS, n = 7, P < 0.01
  Change in TP53 VAF: significantly decreased
TP53; patients who had SD, treatment failure, or early death, n = 3
  Change in TP53 VAF: not significantly changed

— article PMC12257073 (Cancer Research Communications, 2025)
